Results from paper PMC9913425, “Pentacyclic Triterpenoids-Based Ionic Compounds: Synthesis, Study of Structure–Antitumor Activity Relationship, Effects on Mitochondria and Activation of Signaling Pathways of Proliferation, Genome Reparation and Early Apoptosis” (Cancers, 2023).

Key:
Assay type in all cases: cell-based
[1] = test system: HEK293; experiment: In vitro cytotoxicity, IC50 by flow cytometry (Guava ViaCount); conditions: conditionally normal
Procedure, shortened: (§1)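 Suspension lines kept in RPMI 1640 with 10% FBS and […] at 37 °C, 5% CO2; cells seeded at 5 × 10^4 per well and incubated overnight before compound exposure. Viability counted by flow cytometry with Guava ViaCount staining to derive IC50.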

[2] = test system: Jurkat; experiment: as above; conditions: Jurkat cells
Procedure, shortened: as §1

[3] = test system: K562; experiment: as above
Procedure, shortened: as §1

[4] = test system: U937; experiment: as above
Procedure, shortened: as §1

[5] = test system: Jurkat cells; experiment: Apoptosis/necrosis induction (Annexin V Alexa Fluor488, 7AAD staining); conditions: compound at IC50 concentration, incubation 2 h
Procedure, shortened: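 Jurkat cells stained with Annexin V Alexa Fluor488, 7AAD and MitoSense Red to assess membrane state, DNA and mitochondrial membrane integrity, distinguishing apoptosis from necrosis; lower MitoSense Red fluorescence marks mitochondrial damage.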

[6] = test system: Jurkat tumor cells; experiment: Release of cytochrome c from mitochondria (anti-cytochrome C FITC, cytofluorimetry); conditions: compound at IC50, incubation 3 h
Procedure: Staurosporine (an inhibitor of most kinases in the cell) was taken as a control compound.
Figure 2 Release of cytochrome C from mitochondria under the influence of ionic liquids in Jurkat tumor cells. Anti-cytochrome C FITC antibodies were used for staining. […] Incubation with test compounds was 3 h. TEXT PRINTED IN THE PICTURE: (b) 344: Negative 30.82%; Positive 64.67% | (c) 214: Negative 40.58%; Positive 56.16% | (d) 346: Negative 19.43%; Positive 76.96% DOUBTS OF THE COPYIST ABOUT THIS PICTURE: The picture prints only sample codes (344, 214, 346; each followed by '/ E3'), not compound numbers or names; these codes are used as labels. / Panel a (sample code 211-4h, Negative 5.82%, Positive 93.68%) appears to be an untreated control, not a substance, and is left out. / Print is small: b, Negative 30.82% (8 or 6); c, Positive 56.16% (6 or 8); d, Positive 76.96% (6 or 8, 9 or 8).

[7] = test system: STAT3; experiment: Luminex xMAP Multi-Pathway 9-plex, tyrosine-phosphorylated STAT3; conditions: Jurkat cells; 12a 0.006 µM, 13d 0.004 µM per 100,000 cells; up to 12 h; compared with STAT5 (3-fold)
Description: The determination of proteins in a cell by Luminex xMAP technology is characterized by the presence of multiplex multiparametric analysis with the simultaneous use of a multiplex of antibodies with a fluorescent label and magnetic particles, thereby resulting in an increase in the sensitivity of the technique and expansion of the dynamic range, as well as an increase in detection accuracy. Luminex XMAP technology provides a simultaneous analysis of a sufficient number of different proteins in various types of biological fluids (plasma, serum, cerebrospinal fluid, follicular fluid, tissue lysate, etc.) and in cell supernatants. […]
Magnetic microspheres (stained inside with two fluorescent dyes) in combination with monoclonal antibodies against the analyzed analytes (the main intracellular kinases in this case) are incubated with the samples and standards; then, the samples/standards are incubated with biotinylated monoclonal antibodies against the analyzed analytes and, finally, with a solution of streptavidin–phycoerythrin. The Luminex technology identifies the different proteins present in each well and converts the mean fluorescence intensity (MFI) of each measured cytokine to pg/mL using software and standard curves. […]
The specific role of STAT3 and STAT5 was assessed by changes in the content of tyrosine-phosphorylated forms of these proteins (STAT3(ph) and STAT5(ph)). […]

[8] = test system: ATR kinase; experiment: Luminex xMAP DNA Damage/Genotoxicity panel, ATR kinase content; conditions: Jurkat cells; 12a 0.006 µM, 13d 0.004 µM per 100,000 cells; 6 and 12 h
[9] = test system: p21; experiment: Luminex xMAP panel, p21 protein content; conditions: Jurkat cells; 12a 0.006 µM, 13d 0.004 µM per 100,000 cells; first 6 h

SMILES	IC50 ([1]; Homo sapiens, HEK293, HEK293 cells) [nM]	IC50 ([2]; Homo sapiens, Jurkat) [nM]	IC50 ([3]; Homo sapiens, K562, K562 cells) [nM]	IC50 ([4]; Homo sapiens, U-937, U937 cells) [nM]	Apoptosis (%) Early [5] [%]	Apoptosis (%) Late [5] [%]	Apoptosis (%) Necrosis [5] [%]	percentage of cells in the apoptotic state [5] [%]	cytochrome c release from mitochondria (cytochrome C Negative cells) [6] [%]	increase in the content of STAT3 [7]	level of ATR kinase [8]	expression of p21 protein [9]	IC50 ([1]; HEK293 cells) [nM]	IC50 [2] [nM]	IC50 ([3]; K562 cells) [nM]	IC50 ([4]; U937 cells) [nM]
CC1(C)CC[C@]2(C(=O)OCCCCCC[n+]3ccccc3)CC[C@]3(C)C(=CCC4[C@@]5(C)CC[C@H](O)C(C)(C)C5CC[C@]43C)C2C1 (stereo partly drawn) [12a, 1-(6-{[(3β)-3-Hydroxyolean-12-en-28-oyl]oxy}hexyl)-pyridinium bromide]	44 ± 4	6 ± 1	7 ± 1	6 ± 1	0	22.63	65.18	87.81	40.58	to a lesser extent	significant increase	significantly increased	–	–	–	–
CC(=O)[O-].C[n+]1ccn(CCCCCCOC(=O)[C@]23CCC(C)(C)CC2C2=CCC4[C@@]5(C)CC[C@H](O)C(C)(C)C5CC[C@@]4(C)[C@]2(C)CC3)c1 (stereo partly drawn) [13d, 1-(6-{[(3β)-3-Hydroxyolean-12-en-28-oyl]oxy}hexyl)-3-methylimidazolium Acetate]	–	–	–	–	11.00	–	85.0	98.32	19.43	to a lesser extent	significant increase	significantly increased	29 ± 2	4 ± 1	6 ± 1	5 ± 1
